PubChem BioAssay (NCI)
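A five-concentration, 48-hour dose response in 96-well plates underlies each endpoint, interpolated linearly between surrounding concentrations. GI50: concentration for 50% inhibition of growth. At the TGI there is no net growth.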

Legend:
Assay in all cases: NCI-60 cell line screen, 48 h
[1] = system: RPMI-8226 leukemia
[2] = system: MDA-MB-468 breast
[3] = system: NCI-H23 lung
[4] = system: ACHN renal
[5] = system: A498 renal
[6] = system: CAKI-1 renal
[7] = system: CCRF-CEM leukemia
[8] = system: T-47D breast
[9] = system: K-562 leukemia
[10] = system: OVCAR-4 ovarian
[11] = system: SR leukemia
[12] = system: U251 CNS
[13] = system: DU-145 prostate
[14] = system: SK-MEL-28 melanoma
[15] = system: IGROV1 ovarian
[16] = system: SF-268 CNS
[17] = system: 786-0 renal
[18] = system: SF-539 CNS
[19] = system: HOP-62 NSCLC
[20] = system: SK-MEL-5 melanoma
[21] = system: BT-549 breast
[22] = system: MOLT-4 leukemia
[23] = system: HCC-2998 colon
[24] = system: UACC-62 melanoma
[25] = system: MDA-MB-231 breast
[26] = system: HCT-116 colon
[27] = system: UACC-257 melanoma
[28] = system: TK-10 renal
[29] = system: MCF7 breast
[30] = system: HCT-15 colon
[31] = system: SW-620 colon
[32] = system: SNB-75 CNS
[33] = system: HL-60(TB) leukemia
[34] = system: UO-31 renal
[35] = system: HS 578T breast
[36] = system: PC-3 prostate
[37] = system: SNB-19 CNS
[38] = system: OVCAR-5 ovarian
[39] = system: KM12 colon
[40] = system: NCI-H522 lung
[41] = system: MDA-MB-435
[42] = system: COLO 205 colon
[43] = system: RXF 393 renal
[44] = system: A549 NSCLC
[45] = system: SK-OV-3 ovarian
[46] = system: NCI-H226 lung
[47] = system: SN12C renal
[48] = system: HT29 colon
[49] = system: NCI-H460 lung
[50] = system: MALME-3M melanoma
[51] = system: LOX IMVI melanoma
[52] = system: OVCAR-3 ovarian
[53] = system: M14 melanoma
[54] = system: OVCAR-8 ovarian
[55] = system: EKVX NSCLC
[56] = system: SF-295 CNS
[57] = system: HOP-92 NSCLC
[58] = system: SK-MEL-2 melanoma

Structure (SMILES): CCCCOc1ccc(NC(=O)c2sc3nc(C)ccc3c2N)cc1
- GI50 [1]: 8.14 µM
- TGI [1]: > 100 µM
- GI50 [2]: 1.23 µM
- TGI [2]: 3.29 µM
- GI50 [3]: 1.5 µM
- TGI [3]: 3.56 µM
- GI50 [4]: 2.72 µM
- TGI [4]: 12.7 µM
- GI50 [5]: 14.9 µM
- TGI [5]: 28.5 µM
- GI50 [6]: 3.47 µM
- TGI [6]: 16.7 µM
- GI50 [7]: 54 µM
- TGI [7]: > 100 µM
- GI50 [8]: 2.82 µM
- TGI [8]: 25.7 µM
- GI50 [9]: 2.85 µM
- TGI [9]: > 100 µM
- GI50 [10]: 1.49 µM
- TGI [10]: 5.97 µM
- GI50 [11]: 3.3 µM
- TGI [11]: > 100 µM
- GI50 [12]: 3.41 µM
- TGI [12]: 11.1 µM
- GI50 [13]: 5.29 µM
- TGI [13]: 36.1 µM
- GI50 [14]: 12.2 µM
- TGI [14]: 29.8 µM
- GI50 [15]: 4.1 µM
- TGI [15]: 17.4 µM
- GI50 [16]: 6.39 µM
- TGI [16]: 29.9 µM
- GI50 [17]: 1.86 µM
- TGI [17]: 4.21 µM
- GI50 [18]: 1.89 µM
- TGI [18]: 3.77 µM
- GI50 [19]: 10.6 µM
- TGI [19]: 28 µM
- GI50 [20]: 2 µM
- TGI [20]: 10.2 µM
- GI50 [21]: 2.56 µM
- TGI [21]: 10.2 µM
- GI50 [22]: 7.46 µM
- TGI [22]: > 100 µM
- GI50 [23]: 4.73 µM
- TGI [23]: 20.6 µM
- GI50 [24]: 6.89 µM
- TGI [24]: 22.9 µM
- GI50 [25]: 2.93 µM
- TGI [25]: 10.6 µM
- GI50 [26]: 2.28 µM
- TGI [26]: 6.04 µM
- GI50 [27]: 10 µM
- TGI [27]: 44.6 µM
- GI50 [28]: 5.57 µM
- TGI [28]: 20.4 µM
- GI50 [29]: 3.07 µM
- TGI [29]: 16.4 µM
- GI50 [30]: 3.87 µM
- TGI [30]: 17.7 µM
- GI50 [31]: 11.4 µM
- TGI [31]: 31 µM
- GI50 [32]: 2.39 µM
- TGI [32]: 9.02 µM
- GI50 [33]: 49.9 µM
- TGI [33]: > 100 µM
- GI50 [34]: 2.32 µM
- TGI [34]: 11.2 µM
- GI50 [35]: 5.97 µM
- TGI [35]: 38.7 µM
- GI50 [36]: 7.74 µM
- TGI [36]: > 100 µM
- GI50 [37]: 3.47 µM
- TGI [37]: 13.8 µM
- GI50 [38]: 4.61 µM
- TGI [38]: 28.8 µM
- GI50 [39]: 3.96 µM
- TGI [39]: 18.5 µM
- GI50 [40]: 2.88 µM
- TGI [40]: 15.2 µM
- GI50 [41]: 4.96 µM
- TGI [41]: 22.1 µM
- GI50 [42]: 19.3 µM
- TGI [42]: 54.4 µM
- GI50 [43]: 2.98 µM
- TGI [43]: 12.9 µM
- GI50 [44]: 3.22 µM
- TGI [44]: 9.73 µM
- GI50 [45]: 6.36 µM
- TGI [45]: 20 µM
- GI50 [46]: 2.89 µM
- TGI [46]: 18.7 µM
- GI50 [47]: 4.09 µM
- TGI [47]: 22.8 µM
- GI50 [48]: 6.83 µM
- TGI [48]: 26.3 µM
- GI50 [49]: 3.23 µM
- TGI [49]: 10.9 µM
- GI50 [50]: 5.31 µM
- TGI [50]: 19.4 µM
- GI50 [51]: 2.36 µM
- TGI [51]: 6.68 µM
- GI50 [52]: 2.8 µM
- TGI [52]: 8.65 µM
- GI50 [53]: 12.6 µM
- TGI [53]: 35.2 µM
- GI50 [54]: 2.61 µM
- TGI [54]: 6.67 µM
- GI50 [55]: 2.17 µM
- TGI [55]: 14.7 µM
- GI50 [56]: 2.59 µM
- TGI [56]: 10.3 µM
- GI50 [57]: 5.71 µM
- TGI [57]: 22.8 µM
- GI50 [58]: 8.95 µM
- TGI [58]: 31.4 µM
